Assay results from patent US20250215400A1, “CRYOPRESERVATION MEDIUM COMPRISING HYALURONIC ACID, USE THEREOF AND METHOD OF CRYOPRESERVATION” (CONTIPRO A.S., priority 2022, published 2025).

Experiments:
hMSC cells = assay: total number of hMSC cells (CaSy cell counter) after cryopreservation, thawing and two weeks of cultivation; assay type: cell-based, human; details: Example 1, cryopreservation medium in α-MEM
Description: FIG. 1 represents the total number of hMSC cells measured using CaSy cell counter (OMNI Life Science GmbH) after two weeks of cultivation. The data are shown as averages and the standard deviation is shown as an error bar.
Mesenchymal stem cell cultures were cryopreserved. The method of cryopreservation consists of the addition of a cryopreservation medium to the sample and the subsequent […] cryopreservation through a slow freeze at a rate of 1° C./min, for preservation of the sample at low temperatures (−80 C to −196C). The cryopreserved stem cell culture is revived after preservation by thawing in a water bath at 37° C. for 2 minutes and the cryopreservation medium is subsequently washed away from the cellular suspension by centrifugation. The cells are then seeded in a cultivation bottle and cultivated for two weeks.
For cryopreservation, 4 different combinations of cryoprotective medium containing hyaluronic acid with MW 1,500,000 g/mol in two concentrations of 0.1 and 0.2% (w/v) with an addition of 5 or 3% DMSO (v/v) dissolved in a standard α-MEM medium were used. The composition containing 5, 3 or 10% (v/v) DMSO in the medium served as a cryopreservation control.
The mesenchymal stem cells hMSC cultures were cryopreserved. […]

stem cells = details: room temperature; Pal et al., 2012; Tunçer et al., 2018; cited from earlier work

## C[S+](C)[O-] [DMSO, dimethyl sulfoxide]
hMSC cells
  stem cell survival and proliferation efficiency: lower MSCs survival and proliferation efficiency
Stem cells
  concentration range at which an effect on viability, morphology, cell adhesion and differentiation was observed: 0.1-1 % (v/v)
